Laboratory results reported in PubChem BioAssay (NCI).
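Results reflect a 48-hour exposure of cells in 96-well plates to compound at five concentrations. TGI is the concentration that stops growth completely.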

Key:
Assay in all cases: growth of human tumour cells (NCI), 48 h
MOLT-4 leukemia = tested on: MOLT-4 leukemia
NCI-H460 lung = tested on: NCI-H460 lung
KM12 colon = tested on: KM12 colon
K-562 leukemia = tested on: K-562 leukemia
SF-268 CNS = tested on: SF-268 CNS
OVCAR-3 ovarian = tested on: OVCAR-3 ovarian
LOX IMVI melanoma = tested on: LOX IMVI melanoma
OVCAR-5 ovarian = tested on: OVCAR-5 ovarian
OVCAR-8 ovarian = tested on: OVCAR-8 ovarian
EKVX NSCLC = tested on: EKVX NSCLC
SK-MEL-28 melanoma = tested on: SK-MEL-28 melanoma
NCI-H522 lung = tested on: NCI-H522 lung
HOP-62 NSCLC = tested on: HOP-62 NSCLC
HL-60(TB) leukemia = tested on: HL-60(TB) leukemia
SN12C renal = tested on: SN12C renal
OVCAR-4 ovarian = tested on: OVCAR-4 ovarian
MDA-MB-231 breast = tested on: MDA-MB-231 breast
NCI/ADR-RES ovarian = tested on: NCI/ADR-RES ovarian
PC-3 prostate = tested on: PC-3 prostate

Compound | TGI (MOLT-4 leukemia) [µM] | TGI (NCI-H460 lung) [µM] | TGI (KM12 colon) [µM] | TGI (K-562 leukemia) [µM] | TGI (SF-268 CNS) [µM] | TGI (OVCAR-3 ovarian) [µM] | TGI (LOX IMVI melanoma) [µM] | TGI (OVCAR-5 ovarian) [µM] | TGI (OVCAR-8 ovarian) [µM] | TGI (EKVX NSCLC) [µM] | TGI (SK-MEL-28 melanoma) [µM] | TGI (NCI-H522 lung) [µM] | TGI (HOP-62 NSCLC) [µM] | TGI (HL-60(TB) leukemia) [µM] | TGI (SN12C renal) [µM] | TGI (OVCAR-4 ovarian) [µM] | TGI (MDA-MB-231 breast) [µM] | TGI (NCI/ADR-RES ovarian) [µM] | TGI (PC-3 prostate) [µM]
C/C(CC(=O)Nc1cccc([N+](=O)[O-])c1)=N/NC(N)=S | > 100 | > 100 | > 100 | > 100 | > 100 | > 100 | > 100 | > 100 | > 100 | > 100 | > 100 | > 100 | > 100 | > 100 |  |  |  |  | 
COc1cc2c(c(OC)c1)C(=O)C(=O)C(CC1(C)OCCCO1)=C2 | > 29.9 | 26.6 | 29.7 | 6.7 | 30.1 | 10.5 | 12.9 | 37.7 | 28.6 | 29.6 | 28.6 | 2.7 | 32.6 | 4.28 | 26.8 | 18.9 |  |  | 
CC(C)OP(=O)(OC(C)C)/C(=N/Nc1ccc([N+](=O)[O-])cc1)NNC(=O)c1ccccc1 | 42.2 | > 100 | > 100 | > 100 | > 100 | > 100 | 70.8 | > 100 | > 100 | > 100 | 91.3 | > 100 | > 100 | 68.9 | > 100 | 99.2 |  |  | 
CC1=C(N2CC2)C(=O)C(C)=C(N2CC2)C1=O | 13.5 | 0.634 | 1.89 | 3.92 | 1.08 | 0.658 | 1.38 | 3.3 | 2.3 | 2.68 | 1.26 | 0.423 | 1.09 | 1.04 | 1.59 | 2.02 | > 100 | 0.0574 | 
CCCCCCCC(=O)OC(COC(=O)Cc1ccccc1)COC(=O)C(C)(C)C (stereo not drawn) | > 100 | > 100 |  | > 100 | > 100 | > 100 | > 100 | > 100 | > 100 |  | > 100 |  | > 100 | > 100 | > 100 | > 100 |  |  | 
COc1cc2cnc3c4cc(O)ccc4ccc3c2cc1OC | > 100 | > 100 | > 100 | > 100 | > 100 | > 100 | > 100 | > 100 | > 100 | > 100 | > 100 | 70.9 | > 100 | > 100 | > 100 | > 100 |  |  | 
C[C@H]1[C@H](C)CC[C@]2(C(=O)O)CCC3(COC(=O)/C=C/c4ccc(O)cc4)C(=CCC4[C@@]5(C)CC[C@H](O)C(C)(C)C5CC[C@]43C)[C@H]12 (stereo partly drawn) | 32.4 | 11.2 | 16.3 | 20.9 | 22.5 | 24.5 | 18.3 | 28.6 | 26.5 | 24.6 | 22.9 | 17.1 | 23 | 53.1 | 20.8 | 29.7 |  |  | 
COc1ccccc1NC(=O)C(=O)C(c1cnc2ccc([N+](=O)[O-])cc2n1)[N+](=O)[O-] (stereo not drawn) | > 100 | > 100 | > 100 | > 100 | > 100 |  | > 100 | > 100 | > 100 | > 100 | > 100 | > 100 | > 100 | > 100 | > 100 | > 100 |  |  | 
Cc1cc(N(CCC#N)CCC#N)ccc1/C=C(\N=[N+]=[N-])C(=O)NC(=O)COc1ccccc1 | > 100 | > 100 | > 100 | > 100 | > 100 | > 100 | > 100 | > 100 | > 100 | > 100 | > 100 | > 100 | > 100 | > 100 | > 100 | > 100 |  |  | 
C[n+]1ccc2/c(=C\C#N)c3ccccc3n21 | > 100 | > 100 | 45.1 | > 100 | > 100 | 34.2 | 40.4 | > 100 | > 100 | 85.2 | 53.5 | 70.8 | > 100 | 65.6 | > 100 | 72.9 |  | > 100 | > 100
COc1ccc(OC)c(CCc2ccccc2CC(=O)O)c1 | > 100 | > 100 | > 100 | > 100 | > 100 | > 100 | > 100 | > 100 | > 100 | > 100 | > 100 | > 100 |  | > 100 | > 100 | > 100 |  |  | 
